Structures are written as SMILES. “Also recorded” adds a separate entry of the source. Starred links: 1 amine or outer side, 2 acyl side, 3 side chain; linkers in the order of their positions; H or OH if unused. Positions of bridges follow the written chain, without caps; N, C: chain ends. Non-standard residues stand in square brackets, D forms with d. Residues, ends and D or L forms follow the SMILES beside them. Adda = CO[C@@H](Cc1ccccc1)[C@@H](C)/C=C(C)/C=C/[C@H](N[*:1])[C@H](C)C(=O)[*:2]; dAsp(3S-Me) = C[C@H](C(=O)[*:3])[C@@H](N[*:1])C(=O)[*:2]; d(γGlu) = O=C(O)[C@@H](CCC(=O)[*:2])N[*:1]; NMeDha = C=C(NC)C(=O)O

Experimental findings from US9694073B2, “Small molecule inhibitors of polynucleotide kinase/phosphatase, poly(ADP-ribose) polymerase and uses thereof” (THE GOVERNORS OF THE UNIVERSITY OF ALBERTA, priority 2009, dated 2017) are described below.

The target in assay [1] is T1, human PNKP (hPNKP) 3'-phosphatase activity (Homo sapiens, UniProt Q96T60).
T1 construct: made in house; host or cells: bacteria (said only for the batch compared with aprataxin)
Kind of assay: Fluorescence quenching-based screening assay for PNKP 3'-phosphatase activity. Type of assay: biochemical. The following applies: 100 μM compound, 50 ng hPNKP. The procedure:
The […] assay developed originally for protein kinases by QTL Biosystems (Santa Fe, N. Mex.) was modified. […] The TAMRA-labelled oligonucleotide lacking a 3'-phosphate served as a control. […] The assay was performed in 384-well white Optiplate microplates (PerkinElmer, Woodbridge, ON) in 70 mM Tris-HCl, pH 7.4, 60 mM MgCl2, 5 mM MnCl2, 0.3% BSA, 0.09% sodium azide. Reaction buffer was prepared by adding 1 mM DTT immediately prior to use. Five μL of 3'-phosphatase substrate (final concentration 0.5 μM) was used per well. In duplicate, 10 μl of each concentration of hPNKP was added per well. Plates were incubated for 1 hour at 37° C. and then 15 μl of 1× sensor solution (provided by QTL) was added to each well and incubated for 30 minutes at room temperature. Fluorescence (485 nm excitation and 520 nm emission wavelengths) of each well was read in a FLUOstar Optima® (BMG Labtech Inc, Durham, N.C.). Data were analyzed using GraphPad Prism® Software (San Diego, Calif.). […] Small molecules were provided in powder form and were dissolved in 100% DMSO and a final concentration of 100 μM was added to each well and assays were performed as described above. After obtaining an optimum calibration curve and enzyme concentration curve, a simplified form of the assay to test the library in a short time, was employed. One concentration of hPNKP, 50 ng, was tested and compared with the control well with no enzyme. The assay was conducted in the same way as described above with respect to oligonucleotides, buffer, controls, incubation lengths/temperatures, centrifugations and sensor addition. The fluorescence-based phosphatase assay adapted was originally developed to monitor protein phosphatase activity (34). This assay involves a fluorescent sensor molecule coated in trivalent metal cations which causes superquenching of the sensor signal when in close proximity to a dye (TAMRA) on the substrate. The sensor is brought close to TAMRA via the ionic bond formed between the terminal DNA phosphate and the trivalent metal cations on the sensor. Removal of the phosphate leads to an elevation of fluorescence because the sensor is not brought close enough to TAMRA for its signal to be quenched. […] Heat inactivated hPNKP was used as a control.

In assay [2] the target is T2, hPNKP 3'-phosphatase activity (Homo sapiens, UniProt Q96T60).
T2 construct: made in house; host or cells: bacteria (said only for the batch compared with aprataxin)
Nature of the assay: Conventional radio-gel assay for hPNKP 3'-phosphatase activity. Type of assay: biochemical.

For assay [3], the system named is M059J cells (DNA-PKcs negative). Type of assay: cell-based, human.
Assay [4] deals with A549-VO vector only control cells.
In assay [5] the target is T3, PP-1cγ (Homo sapiens, UniProt P36873).
T3 construct: made in house; host or cells: E. coli
T3 sequence (P36873 whole entry): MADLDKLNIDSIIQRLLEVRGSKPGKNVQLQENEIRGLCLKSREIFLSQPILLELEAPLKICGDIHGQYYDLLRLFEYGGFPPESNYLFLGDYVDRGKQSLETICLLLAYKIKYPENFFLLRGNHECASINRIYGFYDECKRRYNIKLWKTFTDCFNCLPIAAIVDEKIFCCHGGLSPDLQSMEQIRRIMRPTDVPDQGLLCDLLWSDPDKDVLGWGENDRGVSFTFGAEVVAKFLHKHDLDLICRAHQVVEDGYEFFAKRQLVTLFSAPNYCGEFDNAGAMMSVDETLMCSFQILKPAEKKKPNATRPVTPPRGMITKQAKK
Nature of the assay: PP-1cγ pNPP phosphatase assay. Type of assay: biochemical. The procedure:
PP-1cγ and calcineurin activity was analyzed, using a colorimetric p-nitrophenol phosphate (pNPP) assay as previously described (33). The reaction were carried out in a 96-well microplate with a final volume of 60 μl containing 40 μl of pNPP assay buffer (50 mM Tris, pH 7.4, 0.1 mM EDTA, 30 mM MgCl2, 0.5 mM MnCl2, 1 mg/ml BSA, 0.2% β-mercaptoethanol), 0.03 μg PP-1cγ (specific activity>30 units per mg) or a catalytically equivalent quantity of calcineurin and 10 μl of 0.5 mM DNA 3′-phosphatase inhibitor sample in DMSO or 10 μl of 50 μM A12B4C3 sample in DMSO, or control solvent. After a 10-minute incubation at 37° C., 10 μl of 30 mM pNPP was added to each well and incubated for an additional of 60 minutes and 45 minutes for PP-1cγ and calcineurin, respectively.

Turning to `CN1C(=O)C2C=CC(C(O)c3cccs3)N(Nc3ccccc3)C2C1=O` (stereo not drawn) [Compound A39B1C2, 2-(hydroxy(thiophen-2-yl)methyl)-6-methyl-1-(phenylamino)-6,7a-dihydro-1H-pyrrolo[3,4-b]pyridine-5,7(2H,4aH)-dione], the “inhibition of hPNKP phosphatase activity (substrate dephosphorylation) in the screening assay” value (“inhibition … in the screening assay” for short) in assay [1] is “significant inhibition; also recorded: marked inhibition”. The “inhibition of hPNKP phosphatase activity, radio-gel assay” value (“inhibition … radio-gel assay” below) in assay [2] was “inhibited”.

`O=C1NCCc2c(OCCCCN3CCCCC3)cccc21` [DPQ, 3,4-dihydro-5[4-(1-piperindinyl)butoxy]-1(2H)-isoquinoline]: in assay [3], the “cell survival of M059J cells” value was “reduced survival”. For the same compound, the “cell survival of control cells (A549-VO)” value in assay [4] is reported as “no such relationship”.

With `CN1C(=O)C2C=CC(C(O)C(c3ccccc3)c3ccccc3)N(NC(=O)OC(C)(C)C)C2C1=O` (stereo not drawn) [Compound A26B11C2, tert-butyl 2-(1-hydroxy-2,2-diphenylethyl)-6-methyl-5,7-dioxo-2,4a,5,6,7,7a-hexahydro-1H-pyrrolo[3,4-b]pyridin-1-ylcarbamate], the “inhibition … in the screening assay” value in assay [1] is given as “significant inhibition; also recorded: marked inhibition”. In addition, the “inhibition … radio-gel assay” value in assay [2] was “inhibited”.

Consider `C=C1C(=O)N[C@H](C)C(=O)N[C@@H](CC(C)C)C(=O)N[C@@H](C(=O)O)[C@H](C)C(=O)N[C@@H](CCCNC(=N)N)C(=O)N[C@@H](/C=C/C(C)=C/[C@H](C)[C@H](Cc2ccccc2)OC)[C@H](C)C(=O)N[C@@H](C(=O)O)CCC(=O)N1C` [microcystin LR, reference compound] (R[Adda][d(γGlu)][NMeDha][dA]L[dAsp(3S-Me)]-OH; lactam N-7), for which the “reduction of the activity of PP1” value in assay [5] is given as roughly 65%.

Consider `O=C1C2C=CC(C(O)c3ccccc3)N(Nc3ccc([N+](=O)[O-])cc3)C2C(=O)N1c1ccccc1` (stereo not drawn) [Compound A1B4C3, 2-(hydroxy(phenyl)methyl)-1-(4-nitrophenylamino)-6-phenyl-6,7a-dihydro-1H-pyrrolo[3,4-b]pyridine-5,7(2H,4aH)-dione], for which the “inhibition … in the screening assay” value in assay [1] is on record as “significant inhibition; also recorded: marked inhibition”. The “inhibition … radio-gel assay” value in assay [2] was “inhibited”.
